Laboratory results as given in patent US11679123B2, “N-acylated hyaluronic acid for hyperuricemia and gouty arthritis” (Queen's University at Kingston, priority 2018, dated 2023).

Experiments:
[1] = system: rats with MSU-induced gouty arthritis; experiment: Dose screening on MSU crystals-induced acute gout in rats: ankle swelling ratio; format: in vivo, Wistar rats; conditions: P<0.05
Method: 48 male Wistar rats (8 weeks: 180-200 g), purchased from Yisi Experimental Animal Technology Company Ltd, Jilin, China (SCXK (Ji)-2016-0003), were housed in plastic cages and maintained on a 12-h light/12-h dark cycle (lights on 7:00-19:00 h) under standard laboratory conditions of 55% relative humidity and 23° C.±1° C. They were given standard chow and tap water ad libitum. All experimental procedures were approved by the Animal Ethics Committee of Jilin University (Reference NO. 201605).
An experimental model of MSU-induced gouty arthritis was used in order to evaluate the anti-inflammatory activities of BHA similar as previous studies with some modifications. Rats were randomly divided into eight groups (n=6), including control group (NC), model group (MC), 0.3 mg/kg colchicine group (COL), 5 μg BHA group (5BHA), 10 μg BHA group (10BHA), 25 μg BHA group (25BHA), 50 μg BHA group (50BHA), 100 μg BHA group (100BHA). MSU crystals were suspended in 0.9% sterile saline (30 mg/mL) prior to use. Rats in the colchicine group were orally administered colchicine (0.3 mg/kg) for 8 days. At day 6, MSU solution (100 μL of 30 mg/mL) was intra-articular injected at the right ankles of all rats except the NC group m which were injected with saline solution. 5BHA, 10BHA, 25BHA, 50BHA and 100BHA groups received intra-articular injections of 5, 10, 25, 50, or 100 μg BHA along with MSU solution (100 μL of 30 mg/mL MSU solution contains 5, 10, 25, 50 or 100 μg BHA) were administered according to the stated BHA doses.
The right ankle circumference of all rats at 0, 4, 12, 24 and 48 h after MSU injection was measured. The swelling ratio (%) was used for evaluating the gouty arthritis and calculated according to the change of the circumference following the formula: Swelling ratio (%)=(Ct−C0)/C0. Wherein, Ct represented the circumference at t hour and C0 represented the circumference at 0 hour.

[2] = system: rats with MSU-induced acute gout; experiment: MSU crystal-induced acute gout in rats: ankle swelling ratio; format: in vivo, Wistar rats; conditions: P<0.01; for ankle swelling in comparison with the MSU treated group: at 4 h, 12 h and 48 h
Method: Male Wistar rats (n=50, 8 weeks: 160-200 g) were purchased from Liaoning Changsheng Biotechnology Company Ltd, Jilin, China (SCXK (Liao)-2015-0001). These rats were housed in plastic cages and maintained on a 12-h light/12-h dark cycle (lights on 7:00-19:00 h) under standard laboratory conditions of 55% relative humidity and at 23° C.±1° C. They were given standard chow (Liaoning Changsheng Biotechnology Company Ltd, Jilin, China) and tap water ad libitum. All experimental procedures were approved by the Animal Ethics Committee of Jilin University (Reference NO. 201605).
An experimental model of MSU-induced gouty arthritis was used in order to evaluate the anti-inflammatory activities of BHA. Rats were randomly divided into five groups (n=10), include a control group (NC), a model group (MC), a 0.3 mg/kg colchicine group (COL), a 10 μg BHA group (10BHA) and a 50 μg BHA group (50BHA). MSU crystals were suspended in 0.9% sterile saline (30 mg/mL) prior to use. The colchicine group rats were orally administrated colchicine (0.3 mg/kg) for 8 days, and all rats except for the control group were injected with 3 mg of MSU (Sigma, USA) at the 6th day into the right ankle synovial space 1 h after gavage feeding. Meanwhile a turbid sample of MSU mixed with 100 μg of BHA or 500 μg of BHA per mL of solution for 10BHA rats or 50BHA rats. At the 8th day, 1 h after the administration of the final agents, blood was sampled from the caudal veins of the rats and the right ankle joints of the rats were collected and fixed in 4% paraformaldehyde. Serum was separated and stored at −80° C. prior to analysis (FIG. 2A, E).
The right ankle circumferences of all rats at 0, 4, 12, 24 and 48 h after MSU injection were measured. The swelling ratio (%) was used to evaluate the gouty arthritis and calculated according to the change of the circumference via the formula: Swelling ratio (%)=(Ct−C0)/C0, wherein, Ct represented the circumference at time t (in h) and C0 represented the circumference at 0 h.

xanthine oxidase (XO) = experiment: XO levels in serum and liver of hyperuricemic mice; format: in vivo, Balb/C mice
Method: (§1) Due to the presence of uricase in mice, a hyperuricemic mouse model was established by using uricase inhibitor and large amounts of purine. Mice were randomly divided into five groups (n=10), including the control group (NC), model group (MC), 20 mg/kg of AL (Shimao Tianjie Pharmaceutical Co. Ltd, Jiangsu, China) group, 10 μg BHA group (10BHA) and 50 μg BHA group (50BHA). Oral administration of AL and intraperitoneal injection of BHA were administered according to the required dose, and all mice were gavage fed 20 g/kg yeast extract powder 12 h prior to the administration of AL and BHA except for NC mice for 8 days. From the 6th to 8th day, 1-h prior to AL and BHA administration, 300 mg/kg of OXO (Sigma, USA) was intraperitoneally injected to all of the mice except those in the control group. At 1 h after the final drug administration, blood was sampled from caudal veins of the mice, serum was separated and their livers were quickly collected (FIG. 3A, E). All samples were stored at −80° C. until assay measurements were performed.
The serum UA concentrations and XO levels in the serum and liver were determined with a standard diagnostic kit (MAK077, MAK078 Sigma, USA) according to the manufacturer's instructions.

[3] = system: creatinine (Cr) and blood urea nitrogen (BUN); experiment: Cr and urea nitrogen in serum and liver of hyperuricemic mice (renal function); format: in vivo, Balb/C mice; conditions: for lowering of Cr in the serum / lowering of urea nitrogen in the liver: BHA, P<0.05
Method: as §1
The levels of reactive oxygen species (ROS, 43355), malondialdehyde (MDA, 43124) glutathione peroxidase (GSH-Px, 43390), superoxide dismutase (SOD, 43125), catalase (CAT, 43356), creatinine (Cr, 43353) and blood urea nitrogen (BUN, 43352) in the serum and livers of mice were determined using ELISA Kits (Yuanye Bio-Technology Co. Ltd, Shanghai, China) according to the manufacturer's instructions.

[4] = system: stimulated human cultured macrophages; conditions: THP-1, BHA of reduced molecular weight; cited from earlier work

reduction of XO levels in the liver compared to untreated mice (xanthine oxidase (XO); 10 μg BHA, P<0.05): 19.78%
Substance: N-butyrylated HA [BHA]
swelling of the ankle compared to MSU treated group ([1]; n=6, BHA 5-100 μg intra-articular, at 4 h and 12 h): significantly suppressed swelling | swelling of the ankle compared to MSU treated group ([1]; n=6, BHA at doses of 10 μg, 50 μg and 100 μg, at 48 h): significant suppressing of swelling effect | swelling ratio reduction ([2]; 10 μg BHA, at 12 h (best suppression)): 11.0% | swelling ratio reduction ([2]; 50 μg BHA, at 48 h (best suppression)): 9.5% | ankle swelling in comparison with the MSU treated group ([2]; BHA 10 μg): suppressed the ankle swelling | ankle swelling in comparison with the MSU treated group ([2]; BHA 50 μg): suppressed the ankle swelling | XO activity in the livers of hyperuricemic mice (xanthine oxidase (XO); 50 μg BHA): no significant effect on XO activity | lowering of Cr in the liver ([3]; 10 μg BHA, P<0.01): 8.14% | lowering of Cr in the serum ([3]; second value listed (10 μg)): 8.21% | lowering of urea nitrogen in the liver ([3]; second value listed (10 μg)): 11.65% | lowering of Cr in the serum ([3]; third value listed (50 μg)): 12.02% | lowering of urea nitrogen in the liver ([3]; third value listed (50 μg)): 12.81% | production of pro-inflammatory cytokines (IL-1, IL-6, IL-8, TNF-α) [4]: decreased production of pro-inflammatory cytokines significantly
